Laboratory results published in patent US6048540A, “Acetamenophen composition with reduced liver toxicity” (Chong Kun Dang Corp., priority 1997, dated 2000).

What was measured:
[1] = Stability test: content on storage and shelf life; settings: calculated with Arrehnius equation; component of prescription (b) of Example 2
[2] = low dose; cited from earlier work

| Compound | Shelf life (time that content maintains more than 90% of initial at 25° C.) [1] [months] | eliminated as unmetabolized form [2] |
| --- | --- | --- |
| CSCCC(N)C(=O)O (racemic) [DL-Methionine] | 35.64 |  |
| CC(=O)Nc1ccc(O)cc1 [Acetaminophen] | 35.94 | about 2% |
| Cn1c(=O)c2c(ncn2C)n(C)c1=O [Caffeine anhydrous] | 89.84 |  |
| N[C@@H](CC(=O)[O-])C(=O)[O-].O.[Na+].[Na+] [Sodium L-aspartate monohydrate] | 33.86 |  |
